Data: ChEMBL document CHEMBL4020773, “Identification of quinazoline based inhibitors of IRAK4 for the treatment of inflammation” (Bioorg Med Chem Lett, 2017)

How the values were obtained:
[1] = biological target: T1, Interleukin-1 receptor-associated kinase 4 (Homo sapiens) (UniProt Q9NWZ3); test: Inhibition of IRAK4 in human whole blood assessed as reduction in R848-stimulated TNF alpha production preincubated for 30 mins followed by R848 addition measured after 5 hrs
T1 sequence (whole entry): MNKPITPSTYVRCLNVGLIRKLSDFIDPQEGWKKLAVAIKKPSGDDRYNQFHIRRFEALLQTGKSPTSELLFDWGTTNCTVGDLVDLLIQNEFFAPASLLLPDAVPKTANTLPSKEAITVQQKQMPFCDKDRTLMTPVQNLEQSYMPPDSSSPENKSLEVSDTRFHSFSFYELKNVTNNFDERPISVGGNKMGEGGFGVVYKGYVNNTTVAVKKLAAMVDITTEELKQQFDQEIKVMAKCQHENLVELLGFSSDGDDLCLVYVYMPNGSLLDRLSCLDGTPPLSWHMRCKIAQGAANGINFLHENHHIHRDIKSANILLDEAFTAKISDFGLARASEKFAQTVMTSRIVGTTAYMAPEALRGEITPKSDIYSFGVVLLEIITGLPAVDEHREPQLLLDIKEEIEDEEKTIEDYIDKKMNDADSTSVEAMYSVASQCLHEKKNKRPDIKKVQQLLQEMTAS

[2] = biological target: T2, Interleukin-1 receptor-associated kinase 4 (Homo sapiens, UniProt Q9NWZ3); test: Inhibition of recombinant human full length GST tagged IRAK4 expressed in baculovirus infected Sf9 cells using RP7030 peptide as substrate after 30 mins in presence of ATP by fluorescence polarization assay
T2 sequence (Q9NWZ3 whole entry): T1 sequence (whole entry)

[3] = system: Rattus norvegicus; test: In vivo inhibition of IRAK4 in Lewis rat assessed as reduction in R848-stimulated serum IL-6 secretion at 3 mg/kg, po administered once daily pretreated for 1 hr followed by R848 challenge measured after 1.5 hrs relative to control; type: functional
[4] = system: Rattus norvegicus; test: Terminal plasma concentration in Lewis rat at 3 mg/kg, po administered once daily; type: ADME, organism-based; details: in vivo, read-out: Cp(T)
[5] = system: Rattus norvegicus; test: In vivo inhibition of IRAK4 in Lewis rat assessed as reduction in R848-stimulated serum IL-6 secretion at 10 mg/kg, po administered once daily pretreated for 1 hr followed by R848 challenge measured after 1.5 hrs relative to control; type: functional
[6] = Apparent permeability in MDCK cells; type: ADME, cell-based, Canis lupus familiaris; details: dog
[7] = system: Rattus norvegicus; test: In vivo inhibition of IRAK4 in Lewis rat assessed as reduction in R848-stimulated serum IL-6 secretion at 100 mg/kg, po administered once daily pretreated for 1 hr followed by R848 challenge measured after 1.5 hrs relative to control; type: functional
[8] = Clearance in rat; type: ADME; details: in vivo
[9] = system: Rattus norvegicus; test: In vivo inhibition of IRAK4 in Lewis rat assessed as reduction in R848-stimulated serum IL-6 secretion at 30 mg/kg, po administered once daily pretreated for 1 hr followed by R848 challenge measured after 1.5 hrs relative to control; type: functional
[10] = Half life in rat; type: ADME; details: in vivo
[11] = system: Rattus norvegicus; test: Terminal plasma concentration in Lewis rat at 10 mg/kg, po administered once daily; type: ADME, organism-based; details: in vivo, read-out: Cp(T)
[12] = system: Rattus norvegicus; test: Terminal plasma concentration in Lewis rat at 30 mg/kg, po administered once daily; type: ADME, organism-based; details: in vivo, read-out: Cp(T)
[13] = biological target: T3, Interleukin-1 receptor-associated kinase 4 (Rattus norvegicus, UniProt D4A7K4); test: Inhibition of IRAK4 in Lewis rat whole blood assessed as reduction in R848-stimulated TNF alpha production after 4 hrs
T3 sequence (D4A7K4 whole entry): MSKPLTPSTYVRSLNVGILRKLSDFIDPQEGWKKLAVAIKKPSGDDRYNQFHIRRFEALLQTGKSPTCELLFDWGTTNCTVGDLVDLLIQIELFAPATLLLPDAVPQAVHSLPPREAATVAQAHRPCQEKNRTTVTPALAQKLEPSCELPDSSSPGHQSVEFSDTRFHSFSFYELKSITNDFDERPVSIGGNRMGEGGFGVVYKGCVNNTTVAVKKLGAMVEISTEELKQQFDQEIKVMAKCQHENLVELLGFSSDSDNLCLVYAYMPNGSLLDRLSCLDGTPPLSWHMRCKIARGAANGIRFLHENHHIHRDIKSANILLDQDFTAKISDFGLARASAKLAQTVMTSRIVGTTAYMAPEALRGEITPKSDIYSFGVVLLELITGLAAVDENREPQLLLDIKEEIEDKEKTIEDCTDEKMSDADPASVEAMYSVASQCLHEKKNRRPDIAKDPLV

[14] = Oral bioavailability in rat; type: ADME, organism-based; details: in vivo
[15] = system: Rattus norvegicus; test: Terminal plasma concentration in Lewis rat at 100 mg/kg, po administered once daily; type: ADME, organism-based; details: in vivo, read-out: Cp(T)
[16] = system: Rattus norvegicus; test: In-vivo inhibition of IRAK4 in po dosed Lewis rat assessed as reduction in R848-stimulated serum IL-6 secretion administered once daily pretreated for 1 hr followed by R848 challenge measured after 1.5 hrs; type: functional, organism-based

Structure (SMILES) | IC50 [1] | IC50 [2] | other results
N#Cc1ccc2ncnc(N[C@H]3CC[C@H](N4CCC4)CC3)c2c1 | 0.62 µM | 0.035 µM | –
COc1ccc2ncnc(N[C@H]3CC[C@H](N(C)C)CC3)c2c1 | 1.1 µM | 0.016 µM | –
CN1CCN([C@H]2CC[C@H](Nc3ncnc4ccc(C#N)cc34)CC2)CC1 | 0.274 µM | – | –
C[C@@H]1C[C@H]2[C@@H]3CCC4=CC(=O)C=C[C@]4(C)[C@@]3(F)[C@@H](O)C[C@]2(C)[C@@]1(O)C(=O)CO [DEXAMETHASONE] | – | – | inhibition in vivo at 3 mg/kg [3]: 86%; concentration [4]: 10 µM
N#Cc1ccc2ncnc(N[C@H]3CC[C@H](N4CCOCC4)CC3)c2c1 | 0.3 µM | 0.007 µM | inhibition in vivo at 10 mg/kg [5]: 2%; Papp [6]: 410 nm/s; inhibition in vivo at 100 mg/kg [7]: 91%; clearance [8]: 1.32 L/h/kg; inhibition in vivo at 30 mg/kg [9]: 57%; half-life [10]: 1.3 h; concentration [11]: 19 µM; concentration [12]: 54 µM; concentration [4]: 5.7 µM; EC50 [13]: 2.3 µM; bioavailability [14]: 73%; concentration [15]: 112 µM; inhibition [16]: Dose-dependent effect
N#Cc1ccc2ncnc(N[C@H]3CC[C@H](N)CC3)c2c1 | 1.4 µM | 0.032 µM | –
CN(C)[C@H]1CC[C@H](Nc2ncnc3cc(F)c(F)cc23)CC1 | > 10 µM | – | –
CS(=O)(=O)N1CCN([C@H]2CC[C@H](Nc3ncnc4ccc(C#N)cc34)CC2)CC1 | 0.33 µM | – | –
CN(C)[C@H]1CC[C@H](Nc2ncnc3ccc(C4CC4)cc23)CC1 | 2.5 µM | 0.012 µM | –
CN(C)[C@H]1CC[C@H](Nc2ncnc3ccc(C#N)cc23)CC1 | 0.77 µM | – | EC50 [13]: 1.7 µM
CN(C)[C@H]1CC[C@H](Nc2ncnc3ccc(Br)cc23)CC1 | 0.29 µM | 0.01 µM | –
CNCCCCc1c(-c2cc(C)cc(C)c2)cnc2ccc(-c3cncc(O)c3)cc12 | – | – | Papp [6]: 110 nm/s
N#Cc1ccc2ncnc(N[C@H]3CC[C@H](N4CCC(F)(F)CC4)CC3)c2c1 | 0.2 µM | – | –
CCc1ccc2ncnc(N[C@H]3CC[C@H](N(C)C)CC3)c2c1 | 1.2 µM | 0.017 µM | –
Cc1ccc2ncnc(N[C@H]3CC[C@H](N(C)C)CC3)c2c1 | 1.8 µM | – | –
CN(C)[C@H]1CC[C@H](Oc2ncnc3ccc([N+](=O)[O-])cc23)CC1 | 2 µM | 0.058 µM | –
CN(C)[C@H]1CC[C@H](Nc2ncnc3ccc(C(F)(F)F)cc23)CC1 | 0.62 µM | – | –
CC(C)c1ccc2ncnc(N[C@H]3CC[C@H](N(C)C)CC3)c2c1 | 1.1 µM | 0.016 µM | –
N#Cc1ccc2ncnc(N[C@H]3CC[C@H](N4CCC(F)CC4)CC3)c2c1 | 0.1 µM | – | –
N#Cc1ccc2ncnc(N[C@H]3CC[C@H](N4CCCC4)CC3)c2c1 | 0.3 µM | – | –
